Structures are written as SMILES.

The test system of assay [1] is Smn protein. The experiment in a line: Smn protein assay in human motor neurons. The assay is classed as cell-based. Conditions: human motor neurons derived from SMA iPS cells; increasing concentrations; 72 hours; confocal fluorescence microscopy. As to the method:
Smn immunofluorescent confocal microscopy is used to quantify the level of Smn protein in human motor neurons treated with test compounds.
Protocol. Human motor neurons derived from SMA iPS cells (Ebert et al., Nature, 2009, […]; and, Rubin et al., BMC Biology, 2011, 9:42) are treated with test compound at various concentrations for 72 hours. The level of Smn protein in the cell nucleus is quantified using Smn immunostaining and confocal fluorescence microscopy essentially as described in Makhortova et al., Nature Chemical Biology, 2011, 7:544. The level of Smn protein in compound-treated samples is normalized to that in vehicle-treated samples and plotted as a function of the compound concentration.

For assay [2], the system named is Smn protein. The experiment in a line: Smn protein assay in tissues of adult C/C-allele SMA mice. The assay is classed as in vivo, mouse. Conditions: brain, spinal cord, muscle, 10 mg/kg orally twice a day for 10 days. As to the method: This Smn protein assay compares tissues from test compound treated mice with those from DMSO vehicle treated mice to determine the increase in levels of Smn protein produced from the human SMN2 gene.
(§1) Protocol. The tissue samples in Safe-Lock tubes are weighed and the volume of RIPA buffer containing the protease inhibitor cocktail is added based on the weight to volume ratios for each type of tissue: Brain (50 mg/mL), Muscle (50 mg/mL) and Spinal Cord (25 mg/mL).
Tissues are homogenized using the TissueLyzer by bead milling. 5 mm stainless steel beads are added to the sample and shaken vigorously for 5 minutes at 30 Hz in the TissueLyzer. The samples are then centrifuged for 20 minutes at 14,000×g in a microcentrifuge and the homogenates transferred to the PCR plate. The homogenates are diluted in RIPA buffer to approximately 1 mg/mL for HTRF and approximately 0.5 mg/mL for total protein measurement using the BCA protein assay. For the SMN HTRF assay, 35 μL of the tissue homogenate is transferred to a 384-well plate containing 5 μL of the antibody solution (1:100 dilution of each of the anti-SMNd2 and anti-SMN Kryptate in reconstitution buffer). To provide a control signal, three (3) wells in the plate contain only RIPA Lysis Buffer and, thus, serve as Blank control wells. The plate is centrifuged for 1 minute to bring the solution to the bottom of the wells and then incubated overnight at room temperature. Fluorescence for each well of the plate at 665 nm and 620 nm is measured on an EnVision multilabel plate reader (Perkin-Elmer). The total protein in the tissue homogenate is measured using the BCA assay according to the manufacturer's protocol.
The normalized fluorescence signal is calculated for each sample, Blank and vehicle control well by dividing the signal at 665 nm by the signal at 620 nm. Normalizing the signal accounts for possible fluorescence quenching due to the matrix effect of the tissue homogenate. The ΔF value (a measurement of Smn protein abundance) for each tissue sample well is calculated by subtracting the normalized average fluorescence for the Blank control wells from the normalized fluorescence for each tissue sample well and then dividing this difference by the normalized average fluorescence for the Blank control wells. The ΔF value for each tissue sample well is divided by the total protein quantity (determined using the BCA assay) for that tissue sample. The change in Smn protein abundance for each tissue sample relative to the vehicle control is calculated as the percent difference in the ΔF value of the tissue sample in the presence of the test compound and the averaged ΔF value of the vehicle control signal divided by the averaged ΔF value of the vehicle control signal. […]

In assay [3] the test system is Smn protein. In words: Smn protein levels in tissues of Δ7 SMA mice of the survival study. Format: in vivo, mouse. Conditions: neonatal Δ7 SMA mice; brain and muscle; treated until P47-55 (Compound 35), until P68 (Compound 626). The method, then: as §1
Tissues are homogenized using the TissueLyzer by bead milling. 5 mm stainless steel beads are added to the sample and shaken vigorously for 5 minutes at 30 Hz in the TissueLyzer. The samples are then centrifuged for 20 minutes at 14,000×g in a microcentrifuge and the homogenates transferred to the PCR plate. […] Fluorescence for each well of the plate at 665 nm and 620 nm is measured on an EnVision multilabel plate reader (Perkin-Elmer). The total protein in the tissue homogenate is measured using the BCA assay according to the manufacturer's protocol.
The normalized fluorescence signal is calculated for each sample, Blank and vehicle control well by dividing the signal at 665 nm by the signal at 620 nm. Normalizing the signal accounts for possible fluorescence quenching due to the matrix effect of the tissue homogenate. […] The ΔF value for each tissue sample well is divided by the total protein quantity (determined using the BCA assay) for that tissue sample. […]
Protocol. […] The number of surviving mice in each group is recorded every day and plotted as a percent of total number of mice. […]

Assay [4] has as its system SMA Δ7 homozygous knockout mice. The experiment in a line: Righting reflex in neonatal Δ7 SMA mice. Format: in vivo, mouse. Conditions: IP QD from PND 3 to day 24, then orally BID, compared to vehicle. As to the method: The functional change in righting reflex of neonatal SMA mice is used to determine whether treatment with a test compound improves righting reflex.
Protocol. SMA Δ7 homozygous knockout mice are dosed intraperitoneally (IP) with test compound or vehicle (100% DMSO) once per day (QD) from postnatal day (PND) 3 until the dose regimen is switched to an oral dose twice per day (BID) in 0.5% hydroxypropylmethyl cellulose (HPMC) with 0.1% Tween-80 at a dose 3.16-fold higher than the dose used for IP. The righting reflex time is measured as the time taken by a mouse to flip over onto its feet after being laid on its back. Righting reflex is measured five times for each mouse (allowing a maximal time of 30 sec for each try) with 5 minutes between each measurement. The righting reflex time for SMA Δ7 homozygous knockout mice treated with test compound or vehicle and age-matched heterozygous mice is measured on PND 10, 14 and 18 and plotted.

Take `CCN1CCN(c2ccc3cc(-c4cn5cc(C)nc(C)c5n4)c(=O)oc3c2)C[C@@H]1C` [Cpd 626, 3-(6,8-dimethylimidazo[1,2-a]pyrazin-2-yl)-7-[(3S)-4-ethyl-3-methylpiperazin-1-yl]-2H-chromen-2-one]: the “Smn protein in the nucleus” value in the assay on Smn protein [1] is on record as “progressively more Smn protein in the nucleus”. In the assay with Smn protein [2], the “Smn protein levels in target tissues compared with heterozygous mice” value is reported as “above those observed in the corresponding tissues of the heterozygous mice” and the “total protein normalized Smn level relative to the vehicle group” value is reported as “increased”. Besides, the “Smn protein expression in tissues relative to vehicle treated and age-matched heterozygous mice” value in the assay on Smn protein [3] was “increased Smn protein expression”.

As to `CC(C)NCCc1ccc2cc(-c3nc4c(Cl)cccc4s3)c(=O)oc2c1` [Cpd 35, 3-(4-chloro-1,3-benzothiazol-2-yl)-7-[2-(propan-2-ylamino)ethyl]-2H-chromen-2-one], the “Smn protein in the nucleus” value in the assay on Smn protein [1] is “progressively more Smn protein in the nucleus”. In the assay with Smn protein [2], the “Smn protein levels in target tissues compared with heterozygous mice” value was “above those observed in the corresponding tissues of the heterozygous mice” and the “total protein normalized Smn level relative to the vehicle group” value is recorded as “increased”. In addition, the righting reflex result in assay [4] was “improved compared to vehicle treated mice”. For the same molecule, the “Smn protein expression in tissues relative to vehicle treated and age-matched heterozygous mice” value with Smn protein [3] is “increased Smn protein expression”.

The record behind these values is patent USRE47689E1, “Compounds for treating spinal muscular atrophy” (PTC Therapeutics, Inc., priority 2011, dated 2019).
